Experimental data published in PMC5342726, “Identification of small molecule inhibitors of ERCC1-XPF that inhibit DNA repair and potentiate cisplatin efficacy in cancer cells” (Oncotarget, 2016).
pIC50: −log10 of the molar value.

Biological target: T1, ERCC1-XPF (Homo sapiens, UniProt P07992+Q92889)
T1 construct: made in house; host or cells: Sf9 insect cells, baculovirus (obtained from Aziz Sancar)
T1 sequence (Q92889 1-916): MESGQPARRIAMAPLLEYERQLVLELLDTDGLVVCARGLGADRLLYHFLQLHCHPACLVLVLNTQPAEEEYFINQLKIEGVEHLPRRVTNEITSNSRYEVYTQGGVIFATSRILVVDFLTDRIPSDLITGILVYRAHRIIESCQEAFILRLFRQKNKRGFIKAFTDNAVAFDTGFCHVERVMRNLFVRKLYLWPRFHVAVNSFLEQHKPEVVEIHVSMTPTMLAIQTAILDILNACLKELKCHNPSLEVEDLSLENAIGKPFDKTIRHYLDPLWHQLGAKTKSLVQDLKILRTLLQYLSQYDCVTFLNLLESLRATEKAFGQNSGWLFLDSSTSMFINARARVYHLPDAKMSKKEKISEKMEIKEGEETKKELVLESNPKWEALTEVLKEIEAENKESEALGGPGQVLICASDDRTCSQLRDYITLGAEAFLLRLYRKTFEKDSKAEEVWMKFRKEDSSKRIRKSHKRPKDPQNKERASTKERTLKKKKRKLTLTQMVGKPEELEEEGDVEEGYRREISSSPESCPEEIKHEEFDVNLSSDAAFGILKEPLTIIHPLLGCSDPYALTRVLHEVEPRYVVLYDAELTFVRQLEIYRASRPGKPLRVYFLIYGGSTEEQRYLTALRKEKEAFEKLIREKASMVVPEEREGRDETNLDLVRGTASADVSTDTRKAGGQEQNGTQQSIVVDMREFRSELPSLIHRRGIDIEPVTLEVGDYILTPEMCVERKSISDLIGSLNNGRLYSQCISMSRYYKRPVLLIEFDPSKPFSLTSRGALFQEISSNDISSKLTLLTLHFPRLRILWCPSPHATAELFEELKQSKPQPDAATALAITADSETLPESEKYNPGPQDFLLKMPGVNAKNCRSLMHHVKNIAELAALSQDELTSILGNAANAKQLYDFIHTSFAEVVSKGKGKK
T1 sequence (P07992 1-297): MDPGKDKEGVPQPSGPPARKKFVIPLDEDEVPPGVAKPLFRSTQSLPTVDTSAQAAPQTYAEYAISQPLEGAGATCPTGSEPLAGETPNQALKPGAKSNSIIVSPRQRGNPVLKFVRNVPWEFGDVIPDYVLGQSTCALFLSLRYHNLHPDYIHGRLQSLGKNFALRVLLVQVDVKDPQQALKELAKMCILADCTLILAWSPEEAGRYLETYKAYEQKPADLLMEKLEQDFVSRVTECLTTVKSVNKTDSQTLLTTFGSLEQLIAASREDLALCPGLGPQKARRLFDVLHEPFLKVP
Assay: Gel-based in vitro incision assay, ERCC1-XPF
Assay type: biochemical
Conditions: purified ERCC1-XPF, 5'-32P DNA substrate, 37°C; read-out: IC50 from the gel-based assay
Protocol: The gel-based in vitro incision assay has been described and extensively used. Here, we titrated Hit 1 (Figure 2A) with ERCC1-XPF or control endonuclease HhaI (Figure 2B) on ice and reactions were initiated by the addition of the 5'-[^32P] radiolabeled DNA substrate at 37°C. The products are visualized via phosphorimager analysis and the ERCC1-XPF or HhaI incised product is illustrated as a faster migrating band in the gel (Figure 2A and 2B).
Hits from the HTS fluorescence screen were validated in a gel based nuclease activity assay as previously described. This assay is robust and highly quantitative. Briefly, the 26- mer DNA substrate (Figure 1) was labeled on the 5'-terminus with [γ^32P]-ATP using T4 polynucleotide kinase (NEB) for 30 minutes at 37°C. The 5'-labeled DNA substrate was annealed to its complementary strand by heating to 95°C for 5 minutes, followed by 65°C and then 37°C for a total of 2 hours. This substrate was gel-purified on a 10% native polyacrylamide gel in TBE (Tris, borate, EDTA electrophoresis buffer), developed, cut and kept for gel elution overnight at 4°C. Post gel elution, the substrate was ethanol precipitated and the counts were determined. The final substrate was stored at −20°C. […]

Structure (SMILES)	pIC50
Oc1cc(O)c2c(c1)OC(c1ccc(O)c(O)c1)C(O)C2c1c(O)cc(O)c2c1OC(c1ccc(O)c(O)c1)C(O)C2 (centres unmarked) [NSC143099]	~7.60
Cc1ccc(S(=O)(=O)Oc2cc(S(=O)(=O)O)cc3cc(S(=O)(=O)O)cc(N)c23)cc1 [NSC16168]	~6.30
